The results in this text go back to patent US20130065760A1, “Substituted Pyridines Having Herbicidal Action” (BASF SE, priority 2010, published 2013).

The subject of this assay is AMARE. Description: greenhouse experiment, post-emergence treatment, herbicidal activity. Format: in vivo, Amaranthus retroflexus. The note with it: post-emergence method, application rate 0.5 kg/ha, scale from 0 to 100. An excerpt:
The seeds of the test plants were sown separately for each species. For the post-emergence treatment, the test plants were first grown to a height of 3 to 15 cm, depending on the plant habit, and only then treated with the active ingredients which had been suspended or emulsified in water. For this purpose, the test plants were either sown directly and grown in the same containers, or they were first grown separately as seedlings and transplanted into the test containers a few days prior to treatment. Depending on the species, the plants were kept at 10-25° C. or 20-35° C. The test period extended over 2 to 4 weeks. During this time, the plants were tended, and their response to the individual treatments was evaluated. Evaluation was carried out using a scale from 0 to 100. 100 means no emergence of the plants, or complete destruction of at least the aerial moieties, and 0 means no damage, or normal course of growth. A good herbicidal activity is given at values of at least 70 and a very good herbicidal activity is given at values of at least 85. The plants used in the greenhouse experiments belonged to the following species: [table]

Take “3-[5-chloro-3-morpholino-2-(trifluoromethyl)phenyl]-1-(2,2-difluoroethyl)-4-hydroxy-1,5-naphthyridin-2-one [I-3]”: the “herbicidal activity against AMARE” value is listed as “very good (a very good herbicidal activity is given at values of at least 85)”.
